Common to all, as to assay type: biochemical
The target in assay [1] is Flt3 (h) (Homo sapiens, UniProt P36888). The experiment in a line: Flt3 human kinase assay (glass-fiber filter). The settings on record: test concentration of 10^−6M; for inhibition at 1 µM: read-out: C6 score (inhibition of Flt3 human). In a few lines:
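Human Flt3 (5-10 mU) with 50 μM peptide substrate in 8 mM MOPS pH 7.0, 0.2 mM EDTA, 10 mM Mg acetate and [γ-33P]ATP (concentration as required), 40 min at room temperature. Reaction stopped with phosphoric acid; substrate 33P incorporation counted on P30 glass-fiber filter.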

The target of assay [2] is cSRC (h) (Homo sapiens, UniProt P12931). The experiment in a line: cSRC human kinase assay (glass-fiber filter). As to conditions: test concentration of 10^−6M; for inhibition at 1 µM: read-out: C3 score (inhibition of cSRC human). In a few lines: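 Radiometric assay: kinase and substrate are incubated with [33P]ATP, with the reaction started by MgATP mix. The reaction is spotted on P30 filtermat, washed in 75 mM phosphoric acid and methanol, and the bound 33P is measured by scintillation counting.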

Assay [3] deals with Abl (h) (Homo sapiens, UniProt P00519). Nature of the assay: Abl human kinase assay (glass-fiber filter). The settings on record: test concentration of 10^−6M; for inhibition at 1 µM: read-out: C1 score (inhibition of Abl human). The method, then: (§1) In the glass-fiber filter technology the activity of the kinase of interest is measured using an appropriate substrate that is incubated with the aforementioned kinase protein in the presence of (^33P) radiolabeled ATP. (^33P) Phosphorylation of the substrate is subsequently measured as radioactivity bound on a glass fiber-filter.
(§2) All kinases are pre-diluted to a 10× working concentration prior to addition into the assay. The composition of the dilution buffer for each kinase is detailed below.
(§3) (specific activity approx. 500 cpm/pmol, concentration as required). The reaction is initiated by the addition of the MgATP mix. After incubation for 40 minutes at room temperature, the reaction is stopped by the addition of 5 μl of a 3% phosphoric acid solution. 10 μl of the reaction is then spotted onto a P30 filtermat and washed three times for 5 minutes in 75 mM phosphoric acid and once in methanol prior to drying and scintillation counting.

In assay [4] the target is Fms (h) (Homo sapiens, UniProt P07333). The experiment in a line: Fms human kinase assay (glass-fiber filter). As to conditions: test concentration of 10^−6M; read-out: C7 score (inhibition of Fms human). In a few lines:
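Radiometric filter-binding assay: Fms (5-10 mU) with 250 μM peptide substrate and [γ-33P]ATP in 8 mM MOPS pH 7.0, 10 mM Mg acetate, 40 min at room temperature. Reaction stopped with phosphoric acid; substrate-bound 33P counted on P30 filtermat.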

Assay [5] has as its target Lyn (h) (Homo sapiens, UniProt P07948). Nature of the assay: Lyn human kinase assay (glass-fiber filter). The settings on record: test concentration of 10^−6M; for inhibition at 1 µM: read-out: C10 score (inhibition of Lyn human). The method, then:
as §1, §2
as §3, with “In a final reaction volume of […] (h) (5-10 mU) is incubated with 50 mM Tris pH 7.5, 0.1 mM EGTA, 0.1 mM Na3VO4, 0.1% O-mercaptoethanol, 0.1 mg/ml poly(Glu, Tyr) 4:1, 10 mM MgAcetate and [γ-^33P-ATP] (specific” for “(specific”, “Filtennat A” for “P30 filtermat”

The target in assay [6] is Fes (h) (Homo sapiens, UniProt P07332). Nature of the assay: Fes human kinase assay (glass-fiber filter). The settings on record: test concentration of 10^−6M; for inhibition at 1 µM: read-out: C4 score (inhibition of Fes human). The method, then:
as §1, §2
as §3, with “In a final reaction volume of 25 μl, Fes (h) (5-10 mU) is incubated with 8 mM MOPS pH 7.0, 0.2 mM EDTA, 0.1 mg/ml poly(Glu, Tyr) 4:1, 10 mM MgAcetate and [γ-^33P-ATP] (specific” for “(specific”, “Filtermat A” for “P30 filtermat”

For assay [7], the target named is Yes (h) (Homo sapiens, UniProt P07947). Nature of the assay: Yes human kinase assay (glass-fiber filter). The settings on record: test concentration of 10^−6M; for inhibition at 1 µM: read-out: C11 score (inhibition of Yes human). The method, boiled down:
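Yes (h) (5-10 mU) with 0.1 mg/ml poly(Glu, Tyr) 4:1 in 8 mM MOPS pH 7.0, 0.2 mM EDTA, 10 mM MgAcetate and [γ-^33P-ATP], 40 minutes at room temperature. Stopped with phosphoric acid; substrate-bound ^33P counted on glass-fiber filter by scintillation.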

Assay [8] has as its target CSK (h) (Homo sapiens, UniProt P41240). The experiment in a line: CSK human kinase assay (glass-fiber filter). The settings on record: test concentration of 10^−6M; read-out: C2 score (inhibition of CSK human). The method, then:
as §1, §2
as §3, with “In a final reaction volume of 25 μl, CSK (h) (5-10 mU) is incubated with 50 mM Tris pH 7.5, 0.1 mM EGTA, 0.1 mM Na3VO4, 0.1% β-mercaptoethanol, 0.1 mg/ml poly(Glu, Tyr) 4:1, 10 mM MnCl2, 10 mM MgAcetate and [γ-^33P-ATP] (specific” for “(specific”, “Filtermat A” for “P30 filtermat”

Assay [9] deals with Lck (h) (Homo sapiens, UniProt P06239). Nature of the assay: Lck human kinase assay (glass-fiber filter). The settings on record: test concentration of 10^−6M; for inhibition at 1 µM: read-out: C9 score (inhibition of Lck human). The method, boiled down: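 Kinase activity measured as transfer of (^33P) from radiolabeled MgATP to substrate, captured on P30 glass-fiber filtermat, washed in 75 mM phosphoric acid and methanol, then scintillation counted.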

In assay [10] the target is EGFR (h) (Homo sapiens, UniProt P00533). The experiment in a line: EGFR human kinase assay (glass-fiber filter). The settings on record: test concentration of 10^−6M; for inhibition at 1 µM: read-out: C4 score (inhibition of EGFR human). The method, then:
as §1, §2
as §3, with “In a final reaction volume of 25 μl, EGFR (h) (5-10 mU) is incubated with 8 mM MOPS pH 7.0, 0.2 mM EDTA, 10 mM MnCl2, 0.1 mg/ml poly(Glu, Tyr) 4:1, 10 mM MgAcetate and [γ-^33P-ATP] (specific” for “(specific”, “Filtermat A” for “P30 filtermat”

Assay [11] deals with GSK3B (h) (Homo sapiens, UniProt P49841). Nature of the assay: GSK3β human kinase assay (glass-fiber filter). As to conditions: test concentration of 10^−6M; for inhibition at 1 µM: read-out: C8 score (inhibition of GSK3β human). The method, then:
The in vitro inhibition of a panel of kinases was assessed using either the glass-fiber filter technology as described by Davies, S. P. et al., Biochem J. (2000), 351; p. 95-105.
as §1, §2
as §3, with “In a final reaction volume of 25 μl, GSK3B (h) (5-10 mU) is incubated with 8 mM MOPS pH 7.0, 0.2 mM EDTA, 20 μM […](p)EDEEE (phospho GS2 peptide), 10 mM MgAcetate and [γ-^33P-ATP] (specific” for “(specific”, “50” for “75”

Chain of Fms (h) (P07333 20-972): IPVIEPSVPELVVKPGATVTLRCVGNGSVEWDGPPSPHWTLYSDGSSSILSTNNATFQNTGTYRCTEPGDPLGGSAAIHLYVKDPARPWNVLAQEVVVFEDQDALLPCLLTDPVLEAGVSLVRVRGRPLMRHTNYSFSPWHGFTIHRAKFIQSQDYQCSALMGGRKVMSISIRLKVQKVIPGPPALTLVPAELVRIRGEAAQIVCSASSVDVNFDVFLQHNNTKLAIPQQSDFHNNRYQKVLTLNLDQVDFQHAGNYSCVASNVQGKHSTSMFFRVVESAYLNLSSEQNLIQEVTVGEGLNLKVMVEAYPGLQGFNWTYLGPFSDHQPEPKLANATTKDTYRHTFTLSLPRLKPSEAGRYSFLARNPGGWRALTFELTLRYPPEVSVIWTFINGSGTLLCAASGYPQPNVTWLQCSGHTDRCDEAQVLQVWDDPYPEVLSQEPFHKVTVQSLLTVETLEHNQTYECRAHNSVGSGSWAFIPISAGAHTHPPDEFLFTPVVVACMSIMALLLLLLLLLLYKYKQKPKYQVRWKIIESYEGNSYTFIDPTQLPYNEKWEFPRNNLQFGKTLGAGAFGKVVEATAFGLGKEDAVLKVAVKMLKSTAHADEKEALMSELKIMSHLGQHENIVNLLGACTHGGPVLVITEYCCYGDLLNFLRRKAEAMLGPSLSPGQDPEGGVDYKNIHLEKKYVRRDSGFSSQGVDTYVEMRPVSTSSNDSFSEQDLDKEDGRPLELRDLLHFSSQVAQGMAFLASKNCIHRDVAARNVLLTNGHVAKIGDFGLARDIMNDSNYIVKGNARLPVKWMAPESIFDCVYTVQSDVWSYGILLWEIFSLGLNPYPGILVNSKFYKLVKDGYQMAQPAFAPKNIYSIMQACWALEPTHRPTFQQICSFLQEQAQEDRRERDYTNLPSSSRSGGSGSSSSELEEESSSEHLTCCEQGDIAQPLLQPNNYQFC
Chain of Lck (h) (P06239 whole entry): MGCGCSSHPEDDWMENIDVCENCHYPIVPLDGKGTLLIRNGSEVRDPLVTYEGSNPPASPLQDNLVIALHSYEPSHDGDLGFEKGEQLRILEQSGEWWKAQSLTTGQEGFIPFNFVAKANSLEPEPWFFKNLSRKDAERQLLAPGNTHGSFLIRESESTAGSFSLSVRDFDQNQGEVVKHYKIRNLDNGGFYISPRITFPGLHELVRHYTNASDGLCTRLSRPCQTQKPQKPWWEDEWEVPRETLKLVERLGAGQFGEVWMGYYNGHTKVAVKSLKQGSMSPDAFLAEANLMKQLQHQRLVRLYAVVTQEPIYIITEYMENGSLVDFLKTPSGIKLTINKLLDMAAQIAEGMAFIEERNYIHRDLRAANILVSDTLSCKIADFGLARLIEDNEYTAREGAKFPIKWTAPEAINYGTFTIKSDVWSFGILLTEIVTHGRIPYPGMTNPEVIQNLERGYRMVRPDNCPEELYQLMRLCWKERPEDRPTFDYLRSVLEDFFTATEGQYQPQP
Chain of GSK3B (h) (P49841 whole entry): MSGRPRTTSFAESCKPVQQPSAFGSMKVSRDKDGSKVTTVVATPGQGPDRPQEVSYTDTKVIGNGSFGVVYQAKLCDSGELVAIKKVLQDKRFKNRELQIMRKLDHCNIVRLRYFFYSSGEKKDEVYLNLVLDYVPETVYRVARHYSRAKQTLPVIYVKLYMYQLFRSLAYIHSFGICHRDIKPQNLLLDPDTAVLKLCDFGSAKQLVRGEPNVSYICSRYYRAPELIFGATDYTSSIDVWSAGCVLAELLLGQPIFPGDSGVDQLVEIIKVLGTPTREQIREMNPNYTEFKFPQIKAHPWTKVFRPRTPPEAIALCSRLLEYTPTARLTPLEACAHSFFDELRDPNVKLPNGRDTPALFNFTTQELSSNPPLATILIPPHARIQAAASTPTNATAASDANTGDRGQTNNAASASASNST
Chain of Fes (h) (P07332 whole entry): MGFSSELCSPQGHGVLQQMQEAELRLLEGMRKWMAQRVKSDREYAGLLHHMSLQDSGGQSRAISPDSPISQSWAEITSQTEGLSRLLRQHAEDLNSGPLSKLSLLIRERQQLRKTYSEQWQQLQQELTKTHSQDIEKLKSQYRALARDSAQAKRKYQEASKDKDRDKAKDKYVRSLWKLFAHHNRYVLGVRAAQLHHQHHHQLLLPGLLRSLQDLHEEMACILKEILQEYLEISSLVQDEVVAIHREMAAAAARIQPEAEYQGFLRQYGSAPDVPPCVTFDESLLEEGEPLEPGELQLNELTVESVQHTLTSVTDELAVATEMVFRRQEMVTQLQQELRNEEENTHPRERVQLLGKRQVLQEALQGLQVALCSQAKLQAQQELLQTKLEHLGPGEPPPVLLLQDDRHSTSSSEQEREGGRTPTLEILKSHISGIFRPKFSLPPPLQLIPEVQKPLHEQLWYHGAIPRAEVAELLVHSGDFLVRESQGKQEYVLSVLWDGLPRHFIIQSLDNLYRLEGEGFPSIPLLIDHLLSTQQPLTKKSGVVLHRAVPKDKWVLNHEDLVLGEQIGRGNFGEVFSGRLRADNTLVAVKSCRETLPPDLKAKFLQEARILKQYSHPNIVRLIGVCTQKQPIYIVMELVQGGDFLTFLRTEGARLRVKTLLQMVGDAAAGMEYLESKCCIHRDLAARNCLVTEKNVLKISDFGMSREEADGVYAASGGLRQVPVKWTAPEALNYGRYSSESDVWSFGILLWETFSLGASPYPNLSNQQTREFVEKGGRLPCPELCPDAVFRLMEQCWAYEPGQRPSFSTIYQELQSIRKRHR
Chain of Flt3 (h) (P36888 27-993): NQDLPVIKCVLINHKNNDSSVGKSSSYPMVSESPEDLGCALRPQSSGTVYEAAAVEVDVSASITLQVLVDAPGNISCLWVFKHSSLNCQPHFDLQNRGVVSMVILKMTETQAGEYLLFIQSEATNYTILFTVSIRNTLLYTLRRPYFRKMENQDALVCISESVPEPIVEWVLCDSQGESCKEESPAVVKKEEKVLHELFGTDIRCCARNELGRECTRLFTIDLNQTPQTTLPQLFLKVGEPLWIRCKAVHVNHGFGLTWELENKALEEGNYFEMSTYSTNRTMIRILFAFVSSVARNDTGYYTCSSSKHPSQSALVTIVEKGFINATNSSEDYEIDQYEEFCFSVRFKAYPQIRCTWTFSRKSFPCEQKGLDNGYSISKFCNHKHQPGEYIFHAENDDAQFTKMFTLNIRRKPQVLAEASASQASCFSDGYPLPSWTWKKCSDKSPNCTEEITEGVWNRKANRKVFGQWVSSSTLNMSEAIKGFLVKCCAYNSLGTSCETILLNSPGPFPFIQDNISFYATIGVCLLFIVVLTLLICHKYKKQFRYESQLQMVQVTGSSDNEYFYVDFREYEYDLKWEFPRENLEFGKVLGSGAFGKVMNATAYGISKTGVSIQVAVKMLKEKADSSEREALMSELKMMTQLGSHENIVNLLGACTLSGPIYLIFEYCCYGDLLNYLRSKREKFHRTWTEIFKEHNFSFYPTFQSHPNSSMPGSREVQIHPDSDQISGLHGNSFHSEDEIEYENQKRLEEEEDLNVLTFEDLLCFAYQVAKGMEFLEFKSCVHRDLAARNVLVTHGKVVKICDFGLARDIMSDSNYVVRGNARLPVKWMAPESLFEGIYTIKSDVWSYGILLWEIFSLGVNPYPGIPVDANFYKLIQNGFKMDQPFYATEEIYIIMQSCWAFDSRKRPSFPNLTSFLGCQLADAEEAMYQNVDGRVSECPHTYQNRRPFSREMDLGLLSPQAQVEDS
Chain of Lyn (h) (P07948 whole entry): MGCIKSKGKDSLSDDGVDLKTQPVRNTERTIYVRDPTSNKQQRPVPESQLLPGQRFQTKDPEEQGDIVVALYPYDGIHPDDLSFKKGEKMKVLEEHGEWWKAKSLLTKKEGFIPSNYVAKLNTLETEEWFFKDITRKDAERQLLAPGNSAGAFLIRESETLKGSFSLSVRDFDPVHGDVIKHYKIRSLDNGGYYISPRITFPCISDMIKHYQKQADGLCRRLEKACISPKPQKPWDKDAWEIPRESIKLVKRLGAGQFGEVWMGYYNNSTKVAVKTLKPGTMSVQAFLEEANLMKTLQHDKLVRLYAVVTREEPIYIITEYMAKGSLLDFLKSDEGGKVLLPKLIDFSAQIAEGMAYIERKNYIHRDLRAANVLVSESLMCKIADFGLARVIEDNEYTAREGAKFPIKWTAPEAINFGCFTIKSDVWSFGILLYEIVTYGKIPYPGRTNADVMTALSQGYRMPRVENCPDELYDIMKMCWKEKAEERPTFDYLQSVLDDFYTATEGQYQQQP
Chain of Yes (h) (P07947 whole entry): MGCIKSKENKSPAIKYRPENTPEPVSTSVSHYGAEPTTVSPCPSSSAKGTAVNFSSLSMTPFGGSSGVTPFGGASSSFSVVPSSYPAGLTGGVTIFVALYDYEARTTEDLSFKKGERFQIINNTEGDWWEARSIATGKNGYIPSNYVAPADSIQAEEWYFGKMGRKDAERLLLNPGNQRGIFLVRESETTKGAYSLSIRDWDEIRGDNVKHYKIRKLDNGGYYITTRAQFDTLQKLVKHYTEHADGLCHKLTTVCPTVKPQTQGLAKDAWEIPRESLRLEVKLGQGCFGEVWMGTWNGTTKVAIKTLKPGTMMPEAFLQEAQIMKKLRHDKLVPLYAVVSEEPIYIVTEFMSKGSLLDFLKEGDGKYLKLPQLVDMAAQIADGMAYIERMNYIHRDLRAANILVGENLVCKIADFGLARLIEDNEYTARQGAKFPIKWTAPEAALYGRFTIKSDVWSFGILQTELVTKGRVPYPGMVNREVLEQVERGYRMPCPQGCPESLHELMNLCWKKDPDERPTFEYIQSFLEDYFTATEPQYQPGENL

The term inhibition denotes the drop in the measured response relative to a control, in per cent. For `O=C1NCCCCCOc2cccc(c2)Nc2ccnc(n2)Nc2cccc1c2` [Compound 22, 14-oxa-2,4,8,20,28-pentaazatetracyclo[20.3.1.1~3,7~.1~9,13~]octacosa-1(26),3,5,7(28),9,11,13(27),22,24-nonaen-21-one], the inhibition at 1 µM was in the range of 30 to 60% in assay [1]; 10 to 30% in assay [2]; 10 to 30% in assay [3]; 10 to 30% in assay [4]; 10 to 30% in assay [5]; 10 to 30% in [6]. Further, the inhibition at 1 µM in assay [7], in assay [8] and in assay [9] was 10 to 30% in each case.
As for `O=C1CCCCNC(=O)c2cccc(c2)Nc2cc(ncn2)Nc2cccc(c2)CN1` [Compound 58, 2,4,6,8,15,21-hexaazatetracyclo[21.3.1.1~3,7~.1~9,13~]nonacosa-1(27),3,5,7(29),9,11,13(28),23,25-nonaene-14,20-dione], the inhibition at 1 µM in assay [1] lay in the range of 10 to 30%; in assay [4], 30 to 60%; in [5], 10 to 30%; in assay [8] it was 60 to 80%.
With `N#Cc1cnc2nc1Nc1cccc(c1)OCCNC(=O)c1cccc(c1)N2` [Compound 20, 14-oxa-2,4,8,17,25-pentaazatetracyclo[17.3.1.1~3,7~.1~9,13~]pentacosa-1(23),3,5,7(25),9,11,13(24),19,21-nonaene-6-carbonitrile, 18-oxo-], the inhibition at 1 µM fell in the range of 30 to 60% in [1]; 10 to 30% in assay [10]; 10 to 30% in assay [2]; 10 to 30% in assay [3]; 10 to 30% in [4]; 60 to 80% in assay [11]. Moreover, the inhibition at 1 µM in [6] and in assay [7] was 10 to 30% each time.
As to `N#Cc1cnc2nc1Nc1cccc(c1)OCC(=O)NCCOc1cccc(c1)N2` [Compound 27, 14,20-dioxa-2,4,8,17,27-pentaazatetracyclo[19.3.1.1~3,7~.1~9,13~]heptacosa-1(25),3,5,7(27),9,11,13(26),21,23-nonaene-6-carbonitrile, 16-oxo-], the inhibition at 1 µM was in the range of 60 to 80% in assay [1]; 10 to 30% in [10]; 10 to 30% in assay [3]; 30 to 60% in assay [4]; 30 to 60% in assay [11]; 10 to 30% in [5]. For the same molecule, the inhibition at 1 µM in assay [6] lay within 10 to 30%; in assay [7] it was 10 to 30%; in [9], 30 to 60%.
Turning to “1H,7H-12,8-metheno-6,2-nitrilo-13,1,5,7,17,20-benzoxapentaazacyclotricosine-3-carbonitrile, 24-chloro-14,15,16,17,18,19,20,21-octahydro-11-methoxy-20-methyl-18-oxo- [Compound 33]”, the “C6 score (inhibition of Flt3 human)” value in assay [1] is reported as 4 (Score 4=>80% inhibition). For the same molecule, in assay [10], the “C4 score (inhibition of EGFR human)” value was 3 (Score 3=60-80% inhibition). In addition, the “C3 score (inhibition of cSRC human)” value in assay [2] is 4 (Score 4=>80% inhibition). Further, the “C1 score (inhibition of Abl human)” value in [3] is 3 (Score 3=60-80% inhibition). For the same molecule, the “C8 score (inhibition of GSK3β human)” value in [11] is reported as 2 (Score 2=30-60% inhibition). Also, the “C10 score (inhibition of Lyn human)” value in [5] is 4 (Score 4=>80% inhibition). Further, in [6], the “C4 score (inhibition of Fes human)” value is 2 (Score 2=30-60% inhibition). For the same molecule, the “C11 score (inhibition of Yes human)” value in [7] is recorded as 4 (Score 4=>80% inhibition). Besides, the “C9 score (inhibition of Lck human)” value in [9] is 3 (Score 3=60-80% inhibition).
Consider `COc1ccc2cc1OCCCNC(=O)[C@@H]1CCCN1Cc1cc(F)c(Cl)cc1Nc1nc(ncc1C#N)N2` [Compound 6, 21,17-metheno-15,11-nitrilo-1H,16H-pyrrolo[2,1-s][13,1,5,7,17,20]benzoxapentaazacyclotricosine-12-carbonitrile, 8-chloro-7-fluoro-2,3,5,10,23,24,25,26,27,27a-decahydro-20-methoxy-27-oxo-, (27aS)-], for which the “C6 score (inhibition of Flt3 human)” value in assay [1] is on record as 2 (Score 2=30-60% inhibition). Also, in [10], the “C4 score (inhibition of EGFR human)” value is 1 (Score 1=10-30% inhibition). For the same molecule, in assay [2], the “C3 score (inhibition of cSRC human)” value is 1 (Score 1=10-30% inhibition). For the same molecule, the “C8 score (inhibition of GSK3β human)” value in assay [11] was 2 (Score 2=30-60% inhibition). Besides, the “C10 score (inhibition of Lyn human)” value in assay [5] was 1 (Score 1=10-30% inhibition). The “C4 score (inhibition of Fes human)” value in [6] is on record as 1 (Score 1=10-30% inhibition). The “C11 score (inhibition of Yes human)” value in [7] is 2 (Score 2=30-60% inhibition). In addition, the “C9 score (inhibition of Lck human)” value in assay [9] is 2 (Score 2=30-60% inhibition).
